Here are results for 8 compounds from ChEMBL document CHEMBL1137751, “Molecular hybridization, synthesis, and biological evaluation of novel chroman I(Kr) and I(Ks) dual blockers” (Bioorg Med Chem Lett, 2009).

Active and inactive are the calls of the source. The calls are words filed in the database; no cut-off is given here.

By IC50 is commonly meant the point on the concentration scale where inhibition reaches its midpoint.

The test system of data set [1] is Heart. The experiment in a line: Antiarrhythmic activity in langendorff ischemia-reperfused Sprague-Dawley rat heart assessed as cardiac protection at 1 uM. It is filed as functional, tissue-based.
Data set [2] has as its system Heart. The experiment in a line: Antiarrhythmic activity in langendorff ischemia-reperfused Sprague-Dawley rat heart assessed as cardiac protection at 3 uM. It is filed as functional, tissue-based.
The subject of data set [3] is Heart. The experiment in a line: AUC in isolated langendorff ischemia-reperfused Sprague-Dawley rat heart at 1 uM. It is filed as ADME, tissue-based.
For data set [4], the system named is Heart. The experiment in a line: Cardioprotective effect in isolated langendorff ischemia-reperfused Sprague-Dawley rat heart assessed as reduction of heart rate at 1 uM after 20 mins by RR interval ECG signal. The class given is functional. Details: scale not given: the % may be the effect or the level left.
Data set [5] deals with Heart. The experiment in a line: Cardioprotective effect in isolated langendorff ischemia-reperfused Sprague-Dawley rat heart assessed as duration of QT intervals at 1 uM after 20 mins. It is filed as functional.
The subject of data set [6] is Heart. The experiment in a line: Cardioprotective effect in isolated langendorff ischemia-reperfused Sprague-Dawley rat heart assessed as duration of QTc intervals at 1 uM after 20 mins. The class given is functional.
The test system of data set [7] is Heart. The experiment in a line: Cardioprotective effect in isolated langendorff ischemia-reperfused Sprague-Dawley rat heart assessed as reduction of heart rate at 0.3 uM after 20 mins by RR interval ECG signal. The class given is functional.
Data set [8] deals with Heart. The experiment in a line: Cardioprotective effect in isolated langendorff ischemia-reperfused Sprague-Dawley rat heart assessed as duration of QT intervals at 0.3 uM after 20 mins. It is filed as functional.
In data set [9] the test system is Heart. The experiment in a line: Cardioprotective effect in isolated langendorff ischemia-reperfused Sprague-Dawley rat heart assessed as duration of QTc intervals at 0.3 uM after 20 mins. It is filed as functional.
In data set [10] the test system is Heart. The experiment in a line: Cardioprotective effect in isolated langendorff ischemia-reperfused Sprague-Dawley rat heart assessed as reduction of heart rate at 3 uM after 20 mins by RR interval ECG signal. The class given is functional.
Data set [11] concerns Heart. The experiment in a line: Cardioprotective effect in isolated langendorff ischemia-reperfused Sprague-Dawley rat heart assessed as duration of QT intervals at 3 uM after 20 mins. The class given is functional.
Data set [12] relates to Heart. The experiment in a line: Cardioprotective effect in isolated langendorff ischemia-reperfused Sprague-Dawley rat heart assessed as duration of QTc intervals at 3 uM after 20 mins. It is filed as functional.
In data set [13] the target is T1, Voltage-gated inwardly rectifying potassium channel KCNH2 (Cavia porcellus, UniProt O08703).
T1 sequence (O08703 whole entry): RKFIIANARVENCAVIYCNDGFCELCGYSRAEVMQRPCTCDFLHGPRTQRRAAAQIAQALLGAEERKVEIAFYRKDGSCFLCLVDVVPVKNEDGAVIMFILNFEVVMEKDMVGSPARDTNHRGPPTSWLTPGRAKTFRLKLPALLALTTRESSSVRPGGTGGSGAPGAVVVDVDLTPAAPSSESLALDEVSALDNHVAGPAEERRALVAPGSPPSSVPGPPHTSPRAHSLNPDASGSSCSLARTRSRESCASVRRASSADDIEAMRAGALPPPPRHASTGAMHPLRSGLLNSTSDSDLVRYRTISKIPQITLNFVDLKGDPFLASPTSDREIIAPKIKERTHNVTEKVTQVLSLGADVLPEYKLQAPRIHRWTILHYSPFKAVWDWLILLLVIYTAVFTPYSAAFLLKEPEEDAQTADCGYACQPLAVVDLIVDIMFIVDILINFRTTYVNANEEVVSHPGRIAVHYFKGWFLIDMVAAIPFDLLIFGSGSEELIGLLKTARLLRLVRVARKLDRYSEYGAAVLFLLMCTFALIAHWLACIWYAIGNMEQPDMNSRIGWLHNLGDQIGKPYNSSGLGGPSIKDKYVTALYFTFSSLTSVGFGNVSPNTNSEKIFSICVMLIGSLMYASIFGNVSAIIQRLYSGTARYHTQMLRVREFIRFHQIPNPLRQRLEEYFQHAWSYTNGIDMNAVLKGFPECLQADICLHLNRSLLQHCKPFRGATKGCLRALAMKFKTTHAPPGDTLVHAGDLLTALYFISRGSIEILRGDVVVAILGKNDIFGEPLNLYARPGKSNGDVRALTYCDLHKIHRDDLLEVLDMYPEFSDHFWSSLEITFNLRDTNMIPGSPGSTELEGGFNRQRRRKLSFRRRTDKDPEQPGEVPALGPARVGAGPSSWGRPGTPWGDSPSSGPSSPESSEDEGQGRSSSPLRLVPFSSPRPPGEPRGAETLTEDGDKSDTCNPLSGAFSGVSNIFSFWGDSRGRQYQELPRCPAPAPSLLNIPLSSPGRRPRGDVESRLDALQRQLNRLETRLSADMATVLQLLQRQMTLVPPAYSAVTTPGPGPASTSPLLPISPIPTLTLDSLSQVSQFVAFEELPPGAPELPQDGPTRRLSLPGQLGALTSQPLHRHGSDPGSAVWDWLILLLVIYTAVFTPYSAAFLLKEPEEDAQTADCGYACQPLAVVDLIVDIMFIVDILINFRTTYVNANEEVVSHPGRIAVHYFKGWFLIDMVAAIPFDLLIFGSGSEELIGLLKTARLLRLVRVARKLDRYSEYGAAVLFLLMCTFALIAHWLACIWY
The experiment in a line: Inhibition of ERG in guinea pig ventricular myocytes assessed as blockade of rapid delayed rectifier potassium current by whole cell patch-clamp technique.

The target of data set [14] is T2, Potassium voltage-gated channel subfamily KQT member 1 (Cavia porcellus, UniProt O70344).
T2 sequence (O70344 whole entry): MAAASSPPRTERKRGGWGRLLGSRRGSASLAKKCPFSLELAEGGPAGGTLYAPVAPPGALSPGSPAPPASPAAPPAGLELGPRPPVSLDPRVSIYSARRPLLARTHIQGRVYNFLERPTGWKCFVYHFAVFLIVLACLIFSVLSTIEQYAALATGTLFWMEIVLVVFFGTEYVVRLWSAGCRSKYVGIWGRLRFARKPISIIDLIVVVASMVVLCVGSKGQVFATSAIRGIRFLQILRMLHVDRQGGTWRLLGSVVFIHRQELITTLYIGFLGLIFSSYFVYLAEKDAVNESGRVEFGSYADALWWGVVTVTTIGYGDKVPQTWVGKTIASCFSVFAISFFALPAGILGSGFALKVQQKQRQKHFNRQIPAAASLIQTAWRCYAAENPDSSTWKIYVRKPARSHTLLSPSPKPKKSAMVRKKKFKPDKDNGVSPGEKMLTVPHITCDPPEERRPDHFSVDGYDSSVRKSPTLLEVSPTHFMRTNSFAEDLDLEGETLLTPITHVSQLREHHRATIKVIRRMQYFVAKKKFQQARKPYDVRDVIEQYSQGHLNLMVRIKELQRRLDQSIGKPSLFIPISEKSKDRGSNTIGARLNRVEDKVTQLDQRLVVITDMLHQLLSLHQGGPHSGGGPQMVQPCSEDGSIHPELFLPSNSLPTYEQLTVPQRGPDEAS
The experiment in a line: Inhibition of KVLQT1/minK in guinea pig ventricular myocytes assessed as blockade of slow delayed rectifier potassium current by whole cell patch-clamp technique. It is filed as cell-based, Ventricular myocyte.

As to `CCCOc1ccc2c(c1)/C(=N/N1CC(=O)N(CCCN3CCN(C)CC3)C1=O)CCO2`, the result in the data set on Heart [1] and in the data set on Heart [2] was Active. Moreover, the Activity entry with Heart [3] was “Dose-dependent effect”; in the data set on Heart [4] it was 18%; in the data set with Heart [5], 13%; in the data set with Heart [6] it was 2%; in the data set with Heart [7], 198 bpm; in the data set on Heart [8], 186.7 ms. Also, the Activity is 326.1 ms/s1/2 in the data set with Heart [9], 179 bpm in the data set with Heart [10], 248 ms in the data set with Heart [11] and 400.9 ms/s1/2 in the data set on Heart [12].

Regarding `CCCCc1oc2ccccc2c1C(=O)c1cc(I)c(OCCN(CC)CC)c(I)c1` [AMIODARONE], the outcome with Heart [1] was Active. In addition, the Activity is listed as 17% with Heart [4], 12% in the data set on Heart [5] and 13% in the data set on Heart [6].

Regarding `Cc1ccc2c(c1)/C(=N/N1CC(=O)N(CCCCN3CCN(C)CC3)C1=O)CCO2`, the IC50 in [13] is greater than 10 µM; in data set [14], greater than 100 µM.

Consider `CN1CCN(CCCCN2C(=O)CN(/N=C3\CCOc4ccc(O)cc43)C2=O)CC1`, for which the figures for the IC50 in [13] and in data set [14] were greater than 100 µM and 60 µM, respectively.

In the case of `CCOc1ccc2c(c1)/C(=N/N1CC(=O)N(CCCCN3CCN(C)CC3)C1=O)CCO2`, the values for the IC50 in [13] and in data set [14] were 6.15 µM and greater than 10 µM, respectively.

As for `CN1CCN(CCCCN2C(=O)CN(/N=C/c3ccc(-c4ccc(Cl)cc4)o3)C2=O)CC1` [AZIMILIDE], the 50% inhibitory concentration (IC50) in data set [13] came out at 0.18 µM; in [14], 0.24 µM. For the same compound, the outcome in the data set with Heart [1] was Active. Besides, the values for the Activity in the data set with Heart [4], with Heart [5] and in the data set with Heart [6] were 12%, 8% and 316.7 ms/s1/2, respectively.

With `CN1CCN(CCCN2C(=O)CN(/N=C3\CCOc4ccc(Cl)cc43)C2=O)CC1`, the IC50 in data set [13] stood at 3.87 µM; in data set [14] it was 0.0058 µM.

As to `O=C1CN(/N=C2\CCOc3ccc(O)cc32)C(=O)N1CCCCN1CCCCC1`, the IC50 was greater than 10 µM in [13] and 5.4 µM in data set [14].
